Patent publication US20210330611A1, “THERAPY FOR NEUROLOGICAL DISEASES/DISORDERS” (priority 2020, published 2021)
Structures can show the parent of a compound that is named as a salt.

Tests used:
[1] = test system: LPS-induced microglia activation; experiment: Image-based assay of LPS-induced microglia activation (HTS and dose response); assay type: cell-based, rat; settings: for inhibition at 10 µM: 48 h, read-out: LPS % inhibition; for inhibition at 10 µM / LPS % inhibition: primary microglia HTS, LPS stimulation, increased cell size (>800 μm^2) as marker of activation
[2] = test system: fibrin- and LPS-induced microglia activation; experiment: cells; assay type: cell-based, rat
[3] = test system: fibrin-induced microglia activation; experiment: Image-based assay of fibrin-induced microglia activation (HTS and dose response); assay type: cell-based, rat; settings: for inhibition at 10 µM / Fibrin % inhibition: primary microglia HTS, fibrin stimulation, increased cell size (>800 μm^2) as marker of activation; for inhibition at 10 µM: read-out: Fibrin % inhibition
[4] = test system: primary rat microglia; experiment: Cell toxicity (dead cells, size <150 μm2) in LPS assay; settings: primary microglia HTS, LPS stimulation; decreased size (<150 μm^2) as marker of toxicity
[5] = test system: primary rat microglia; experiment: Cell toxicity (dead cells, size <150 μm2) in coated fibrin (cFib) assay; settings: primary microglia HTS, fibrin stimulation; decreased size (<150 μm^2) as marker of toxicity;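 note: share of dead cells sized under 150 µm2 at 10 µM in fibrin-stimulated microglia HTS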
[6] = quadrant by fibrin and LPS inhibition in HTS of 1907 compounds

SMILES	inhibition at 10 µM ([1]; Rattus norvegicus, Microglia) [%]	Quadrant (FIG. 5b) [2, 6]	inhibition at 10 µM ([3]; Rattus norvegicus, Microglia) [%]	LPS % cell toxicity [4] [%]	Fibrin % cell toxicity [5] [%]	LPS % inhibition [1] [%]	Fibrin % inhibition [3] [%]	IC50 ([1]; Rattus norvegicus, Microglia, Table 7, read-out: LPS_IC50) [nM]	Quadrant (FIG. 5b) ([2]; Table 2, screen at 10 μM)	Activity ([2]; Table 7, fib = fibrin, LPS, tox = toxicity)	IC50 ([3]; Rattus norvegicus, Microglia, Table 7, read-out: fib_IC50) [nM]
CN1CCOC(c2ccccc2)c2ccccc2C1 (stereo not shown) [Nefopam]	3	Q4	-15	0	0	–	–	–	–	–	–
COc1nc(N)nc2c1ncn2[C@@H]1O[C@H](CO)[C@@H](O)[C@@H]1O [Nelarabin]	–	Q4	–	0	0	0	−10	–	–	–	–
CN(C)C(=O)Oc1cccc([N+](C)(C)C)c1 [Neostigmine]	15	Q4	-15	0	0	–	–	–	–	–	–
CCN[C@@H]1C[C@H](N)[C@@H](O[C@H]2OC(CN)=CC[C@H]2N)[C@H](O)[C@H]1O[C@H]1OC[C@](C)(O)[C@H](NC)[C@H]1O.CCN[C@@H]1C[C@H](N)[C@@H](O[C@H]2OC(CN)=CC[C@H]2N)[C@H](O)[C@H]1O[C@H]1OC[C@](C)(O)[C@H](NC)[C@H]1O.O=S(=O)(O)O.O=S(=O)(O)O.O=S(=O)(O)O.O=S(=O)(O)O.O=S(=O)(O)O [Netilmicin Sulfate]	–	Q4	–	0	1	12	−6	–	–	–	–
Cc1ccnc2c1NC(=O)c1cccnc1N2C1CC1 [Nevirapine]	15	Q4	3	0	0	–	–	–	–	–	–
O=C(CCNNC(=O)c1ccncc1)NCc1ccccc1 [Nialamide]	11	Q4	-6	0	1	–	–	–	–	–	–
COC(=O)C1=C(C)NC(C)=C(C(=O)OCCN(C)Cc2ccccc2)C1c1cccc([N+](=O)[O-])c1 (stereo not shown) [Nicardipine]	12	Q4	11	0	0	–	–	–	–	–	–
O=C(Nc1ccc([N+](=O)[O-])cc1Cl)c1cc(Cl)ccc1O [Nicolsamide, Niclosamide]	–	Q4	–	1	1	21	−2	–	–	–	–
O=C(c1cccnc1)N1CCOCC1 [Nicopholine]	21	Q4	26	0	0	–	–	–	–	–	–
O=C(O)c1cccnc1Nc1cccc(C(F)(F)F)c1 [Niflumic Acid]	9	Q4	-14	0	1	–	–	–	–	–	–
O=C(N/N=C/c1ccc([N+](=O)[O-])o1)c1cc([N+](=O)[O-])cc([N+](=O)[O-])c1O [Nifursol]	20	Q4	47	0	1	–	–	–	–	–	–
CCN(CC)C(=O)c1cccnc1 [Nikethamide]	-4	Q4	12	0	0	–	–	–	–	–	–
Cc1ncc(CNC(=O)N(CCCl)N=O)c(N)n1 [Nimustine]	10	Q4	-1	0	1	–	–	–	–	–	–
O=[N+]([O-])c1ccc([As](=O)(O)O)cc1 [Nitarsone]	–	Q4	–	0	1	19	−3	–	–	–	–
CC(=O)Oc1ccccc1C(=O)Nc1ncc([N+](=O)[O-])s1 [Nitazoxanide]	22	Q4	-16	0	1	–	–	–	–	–	–
CC(=O)Nc1ncc([N+](=O)[O-])s1 [Nithiamide]	21	Q4	3	1	1	–	–	–	–	–	–
CCOC(=O)C1=C(C)NC(C)=C(C(=O)OC)C1c1cccc([N+](=O)[O-])c1 (stereo not shown) [Nitrendipine]	18	Q4	-12	0	1	–	–	–	–	–	–
NC(=O)N/N=C/c1ccc([N+](=O)[O-])o1 [Nitrofural]	1	Q4	-14	0	0	–	–	–	–	–	–
O=[N+]([O-])OCC(CO[N+](=O)[O-])O[N+](=O)[O-] [Nitroglycerin]	17	Q4	2	1	1	–	–	–	–	–	–
NC(=O)c1cc([N+](=O)[O-])cc([N+](=O)[O-])c1 [Nitromide]	–	Q4	–	0	0	11	−7	–	–	–	–
O=[N+]([O-])c1ccc(O)c2ncccc12 [Nitroxoline]	-6	Q4	-5	0	1	–	–	–	–	–	–
C#C[C@]1(OC(C)=O)CC[C@H]2[C@@H]3CCC4=CC(=O)CC[C@@H]4[C@H]3CC[C@@]21C [Norethindrone Acetate]	18	Q4	-5	0	1	–	–	–	–	–	–
COc1ccc2c(c1OC)C(=O)O[C@@H]2[C@H]1c2c(cc3c(c2OC)OCO3)CCN1C [Noscapine Hydrochloride]	23	Q4	-15	0	1	–	–	–	–	–	–
CO[C@@H]1[C@@H](OC(N)=O)[C@@H](O)[C@H](Oc2ccc3c(O)c(NC(=O)c4ccc(O)c(CC=C(C)C)c4)c(=O)oc3c2C)OC1(C)C [Novobiocin]	8	Q4	-17	0	0	–	–	–	–	–	–
CC(CCc1ccccc1)NC(C)C(O)c1ccc(O)cc1 (stereo not shown) [Nylidrin hydrochloride, reference compound]	24	Q4	6	1	0	–	–	7	Q4	fib/LPS	2
CCCCC(CC)COC(=O)c1ccccc1O (stereo not shown) [Octisalate]	5	Q4	-17	0	0	–	–	–	–	–	–
CC(C)CCCC(C)N (stereo not shown) [Octodrine]	-2	Q4	2	0	0	–	–	–	–	–	–
